The target in this series is T1, human TLR9 (Homo sapiens, UniProt Q9NR96).
T1 construct: expressed in transfected cells
T1 sequence (Q9NR96 26-1032): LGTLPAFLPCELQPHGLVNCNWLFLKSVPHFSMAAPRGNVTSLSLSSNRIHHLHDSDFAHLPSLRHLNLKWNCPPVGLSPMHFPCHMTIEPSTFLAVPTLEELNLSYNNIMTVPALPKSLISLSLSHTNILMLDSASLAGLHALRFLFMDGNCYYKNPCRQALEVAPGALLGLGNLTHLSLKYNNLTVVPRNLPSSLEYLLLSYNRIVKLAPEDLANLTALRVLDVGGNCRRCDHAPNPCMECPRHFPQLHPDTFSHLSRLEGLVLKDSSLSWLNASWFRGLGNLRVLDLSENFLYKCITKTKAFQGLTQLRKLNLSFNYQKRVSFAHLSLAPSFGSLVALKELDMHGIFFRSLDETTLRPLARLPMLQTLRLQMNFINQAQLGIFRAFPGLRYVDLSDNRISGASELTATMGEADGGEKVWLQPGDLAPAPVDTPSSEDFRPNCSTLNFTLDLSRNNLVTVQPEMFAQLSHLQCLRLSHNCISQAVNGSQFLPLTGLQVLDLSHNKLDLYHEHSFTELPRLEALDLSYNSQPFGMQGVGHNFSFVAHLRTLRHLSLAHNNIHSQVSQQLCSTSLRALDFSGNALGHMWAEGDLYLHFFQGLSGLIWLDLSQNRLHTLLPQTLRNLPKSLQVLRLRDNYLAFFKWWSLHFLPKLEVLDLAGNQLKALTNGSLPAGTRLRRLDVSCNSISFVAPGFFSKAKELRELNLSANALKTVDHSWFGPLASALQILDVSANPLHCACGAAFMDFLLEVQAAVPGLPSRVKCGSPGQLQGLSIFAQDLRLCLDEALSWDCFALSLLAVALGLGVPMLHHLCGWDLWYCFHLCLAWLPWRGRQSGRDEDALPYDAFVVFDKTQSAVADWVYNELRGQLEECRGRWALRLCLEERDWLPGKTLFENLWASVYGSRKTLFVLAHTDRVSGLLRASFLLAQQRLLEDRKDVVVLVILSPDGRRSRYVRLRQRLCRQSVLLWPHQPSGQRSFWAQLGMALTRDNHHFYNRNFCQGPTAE
Briefly: NF-κB-luciferase activation of stably transfected 293-hTLR9-luc cells by CpG ODN 2006 in presence of inhibitory ODN 2088 and/or chloroquine. Particulars: as Table 1: ODN 2088 0.05 μM. The series is classed as cell-based. How it is done: To generate stable clones expressing human TLR9, murine TLR9, or either TLR9 with the NF-κB-luc reporter plasmid, 293 cells were transfected in 10 cm plates (2×10^6 cells/plate) with 16 μg of DNA and selected with 0.7 mg/mL G418 (PAA Laboratories GmbH, Cölbe, Germany). The clones were also screened for IL-8 production or NF-κB-luciferase activity after stimulation with ODN. Four different types of clones were generated.
NF-κB activation was measured by determining luciferase activity of cells 16 h later. Results are given as fold induction above medium background.

With `CCN(CC)CCCC(C)Nc1ccnc2cc(Cl)ccc12` (stereo not drawn) [Chloroquine, chloroquine], the “Fold increase of EC50 compared to ODN 2006 + TE” value came to 2.3 fold (chloroquine 0.039 μg/mL), 2.6 fold (chloroquine 0.078 μg/mL) and 3.6 fold (chloroquine 0.3125 μg/mL).

Regarding “ODN 2088: inhibitory ODN, TCCTGGCGGGGAAGT, SEQ ID NO:7 (chemistry not given here)”, the “Fold increase of EC50 compared to ODN 2006 + TE” value is 14.7 fold (chloroquine 0.039 μg/mL), 4.2 fold (chloroquine 0.078 μg/mL) and 8.0 fold (chloroquine 0.3125 μg/mL).

(Values after patent US20040009949A1, “Method for treating autoimmune or inflammatory diseases with combinations of inhibitory oligonucleotides and small molecule antagonists of immunostimulatory CpG nucleic acids” (Coley Pharmaceutical Group, Inc., priority 2002, published 2004).)
